Measurements taken from patent US20210107871A1 (priority 2017, published 2021).

How the values were obtained:
Type in all cases: cell-based
[1] = tested on: tai forest Ebola virus (pseudotype VSV); test: microbe, parasite or virus in culture; settings: read-out: C values
[2] = tested on: Marburgvirus (Angola strain) (pseudotype VSV); test: microbe, parasite or virus in culture; settings: Orthomarburgvirus, read-out: C values
[3] = tested on: pseudotype VSV (expressing GFP) having the surface glycoprotein of Ebola virus (zaire sp.); test: organism not typed; settings: for IC50: Vero C1008; for activity at 0.02 µM / activity at 0.078 µM / activity at 0.312 µM / activity at 0.625 µM / activity at 1.25 µM / activity at 2.5 µM / activity at 5 µM / activity at 0.005 µM: Vesicular stomatitis virus, Vero C1008, 18 h, read-out: Viral Infection rate (%); for activity at 0.02 µM: Compound Conc. 0.020 μM; for activity at 0.078 µM: Compound Conc. 0.078 μM; for activity at 0.312 µM: Compound Conc. 0.312 μM; for activity at 0.625 µM: Compound Conc. 0.625 μM; for activity at 1.25 µM: Compound Conc. 1.25 μM; for activity at 2.5 µM: Compound Conc. 2.5 μM; for activity at 5 µM: Compound Conc. 5 μM; for activity at 0.005 µM: Compound Conc. 0.005 μM
[4] = tested on: reston Ebola virus (pseudotype VSV); test: microbe, parasite or virus in culture; settings: Reston ebolavirus, read-out: C values
[5] = tested on: sudan Ebola virus (pseudotype VSV); test: microbe, parasite or virus in culture; settings: Sudan ebolavirus, read-out: C values
[6] = tested on: bundibugyo Ebola virus (pseudotype VSV); test: microbe, parasite or virus in culture; settings: read-out: C values

| Structure (SMILES) | IC50 [1] [µM] | IC50 [2] [µM] | IC50 [3] [µM] | activity at 0.02 µM [3] [%] | activity at 0.078 µM [3] [%] | activity at 0.312 µM [3] [%] | activity at 0.625 µM [3] [%] | activity at 1.25 µM [3] [%] | activity at 2.5 µM [3] [%] | activity at 5 µM [3] [%] | IC50 [4] [µM] | IC50 [5] [µM] | IC50 [6] [µM] | activity at 0.005 µM [3] [%] |
| --- | --- | --- | --- | --- | --- | --- | --- | --- | --- | --- | --- | --- | --- | --- |
| CCN(CC)CCCN(c1ccc(OC)cc1-c1ccccc1)S(=O)(=O)c1ccccc1 [4-17, N-[3-(diethylamino)propyl]-N-(4-methoxy-2-phenyl-phenyl)benzensulfonamide] | 0.5 to 1 | 1 to 5 | ~0.05 | 72.6 | 34.6 | 1.91 | 2.05 | 0.2 | 0.81 | 0.22 | ~1 | ~0.3 | ~0.05 | – |
| COc1ccc(N(CC2CCN(C)CC2)S(=O)(=O)c2ccccc2)c(-c2ccccc2)c1 [4-20] | 0.5 to 1 | 1 to 5 | ~0.05 | 78.8 | 43.7 | 4.58 | 2.58 | 0.23 | 0.09 | 0.17 | ~1 | ~0.3 | ~0.05 | 91.8 |
| CCN1CCC(CN(c2ccc(OC)cc2-c2ccccc2)S(=O)(=O)c2ccccc2)CC1 [4-21] | 0.5 to 1 | 1 to 5 | ~0.05 | 64.6 | 28.5 | 0.75 | 0.22 | 0.18 | 0.12 | 0.17 | ~1 | ~0.3 | ~0.05 | – |
| COc1ccc(N(CCCN(C)C)S(=O)(=O)c2ccccc2)c(-c2ccccc2)c1 [4-27, N-[3-(dimethylamimo)propyl]-N-(4-methoxy-2-phenyl-phenyl)benzensulfonamide] | 0.5 to 1 | 1 to 5 | ~0.05 | 81.5 | 45 | 3.49 | 0.4 | 0.18 | 0.14 | 0.2 | ~1 | ~0.3 | ~0.05 | – |
| CCN1CCC(CN(c2ccc(OC)cc2-c2ccccc2F)S(=O)(=O)c2ccccc2)CC1 [4-57, N-[2-(2-fluorophenyl)-4-methoxy-phenyl)-N-(1-ethyl-4-piperidylmethyl)benzensulfonamide] | – | – | – | – | 93.3 | 58.2 | – | 1 | – | 0.83 | – | – | – | 101 |
| CCN1CCC(CN(c2ccc(OC)cc2-c2ccccc2)S(=O)(=O)c2cccc(F)c2)CC1 [4-63, 3-fluoro-N-(4-methoxy-2-phenyl-phenyl)-N-(1-ethyl-4-piperidylmethyl)benzensulfonamide] | – | – | – | 96.2 | 78.2 | 34.3 | – | 0.81 | – | 0 | – | – | – | 96.7 |
| CCN(CC)CCCN(c1ccc(OC)cc1-c1ccc(F)cc1)S(=O)(=O)c1ccccc1 [4-68, N-[3-(diethylamino)propyl]-N-[2-(4-fluorophenyl)-4-methoxy-phenyl)benzensulfonamide] | – | – | – | – | – | 52.8 | – | – | – | 0.25 | – | – | – | 99.3 |
